Consider seven compounds from ChEMBL document CHEMBL3272096, “Semisynthetic cephalosporins. Synthesis and structure-activity relationships of 7-sulfonylacetamido-3-cephem-4-carboxylic acids” (1976).

Converted amounts (≈) assume the structure as drawn. The source made the active and inactive calls. The calls are words filed in the database; no cut-off is given here.

The test system of one test is Klebsiella pneumoniae. In words: Antibacterial activity against Klebsiella pneumoniae 4200 by two-fold agar dilution method. Type of test: functional. (In general: In agar dilution, organisms are placed on agar that contains the substance at set levels.)
Test [1] deals with Escherichia coli. The test is described as follows: Antibacterial activity against Escherichia coli 12140 infected in sc dosed mouse assessed as host protection administered at 1 and 5 hrs post-infection. Type of test: functional. The settings on record: Escherichia coli, 12140, sc; read-out: PD50.
Test [2] relates to Staphylococcus aureus. In words: Antibacterial activity against penicillin G-resistant Staphylococcus aureus HH 127 by two-fold agar dilution method. It counts as functional.
A further test concerns Pseudomonas aeruginosa. In words: Antibacterial activity against Pseudomonas aeruginosa by two-fold agar dilution method. It counts as functional, organism-based.
Test [3] concerns Staphylococcus aureus. In words: Antibacterial activity against Staphylococcus aureus 23390 by two-fold agar dilution method. It counts as functional, organism-based.
In a further test the test system is Klebsiella aerogenes. In words: Antibacterial activity against Enterobacter aerogenes ATCC 13048 by two-fold agar dilution method. It counts as functional.
Another test relates to Shigella flexneri. The test is described as follows: Antibacterial activity against Shigella paradysenteriae HH 117 by two-fold agar dilution method. Type of test: functional.
Test [4] deals with Escherichia coli. The test is described as follows: Antibacterial activity against Escherichia coli 12140 by two-fold agar dilution method. It counts as functional.
The next test deals with Enterococcus faecalis. In words: Antibacterial activity against Streptococcus faecalis by two-fold agar dilution method. Type of test: functional.
Another test has as its system Salmonella paratyphi. The test is described as follows: Antibacterial activity against Salmonella paratyphi ATCC 12176 by two-fold agar dilution method. It counts as functional, Salmonella enterica subsp. enterica serovar Paratyphi A. The settings on record: Salmonella enterica.

For orientation: MIC means the least concentration at which growth counts as inhibited. A lower MIC goes with greater potency. As to `Cn1nnnc1SCC1=C(C(=O)O)N2C(=O)[C@@H](NC(=O)CS(=O)(=O)c3ccccc3)[C@H]2SC1`, the MIC against Klebsiella pneumoniae was 3.1 µg/mL (≈ 6.07 µM); with Staphylococcus aureus [2], 0.4 µg/mL (≈ 0.783 µM); in the test on Klebsiella aerogenes, 13 µg/mL (≈ 25.5 µM); in the test with Shigella flexneri, 1.6 µg/mL (≈ 3.13 µM); in the test on Escherichia coli [4], 3.1 µg/mL (≈ 6.07 µM); against Enterococcus faecalis it was more than 13 µg/mL. The same compound yielded an MIC against Salmonella paratyphi of 6.2 µg/mL (≈ 12.1 µM). Also, in the test on Escherichia coli [1], the ED50 was determined as 25 mg/kg. Also, the outcome with Pseudomonas aeruginosa was inactive. Besides, the outcome in the test with Staphylococcus aureus [3] was Active.

`CCS(=O)(=O)CC(=O)N[C@@H]1C(=O)N2C(C(=O)[O-])=C(COC(C)=O)CS[C@H]12.[Na+]`: the MIC is 6.2 µg/mL against Klebsiella pneumoniae; 0.8 µg/mL in the test with Staphylococcus aureus [2]; more than 200 µg/mL with Klebsiella aerogenes; 25 µg/mL against Shigella flexneri; 25 µg/mL against Escherichia coli [4]; more than 13 µg/mL with Enterococcus faecalis. Besides, the MIC with Salmonella paratyphi was found to be 3.1 µg/mL. Moreover, the ED50 with Escherichia coli [1] was 70 mg/kg. For the same compound, the result in the test on Pseudomonas aeruginosa was inactive. Moreover, in the test with Staphylococcus aureus [3], the result was Active.

Take `Cn1nnnc1SCC1=C(C(=O)[O-])N2C(=O)[C@@H](NC(=O)CS(N)(=O)=O)[C@H]2SC1.[Na+]`: the MIC in the test on Klebsiella pneumoniae was 13 µg/mL; in the test on Staphylococcus aureus [2], 1.6 µg/mL; against Klebsiella aerogenes it was 13 µg/mL; in the test on Shigella flexneri, 3.1 µg/mL; with Escherichia coli [4], 3.1 µg/mL; against Enterococcus faecalis, more than 13 µg/mL. The compound further registered a minimal inhibitory concentration (MIC) in the test with Salmonella paratyphi of 1.6 µg/mL. The ED50 in the test with Escherichia coli [1] came to 38 mg/kg. Further, the result with Pseudomonas aeruginosa was inactive. For the same compound, in the test with Staphylococcus aureus [3], the result was Active.

Take `CCCCS(=O)(=O)CC(=O)N[C@@H]1C(=O)N2C(C(=O)[O-])=C(CSc3nnnn3C)CS[C@H]12.[Na+]`: the MIC in the test on Klebsiella pneumoniae was 3.1 µg/mL; against Staphylococcus aureus [2], 0.4 µg/mL; in the test on Klebsiella aerogenes, 13 µg/mL; against Shigella flexneri, 3.1 µg/mL; in the test on Escherichia coli [4] it was 3.1 µg/mL; against Enterococcus faecalis, more than 13 µg/mL. Besides, the MIC against Salmonella paratyphi came out at 1.6 µg/mL. The ED50 in the test on Escherichia coli [1] is 21 mg/kg. Moreover, the result with Pseudomonas aeruginosa was inactive. Also, the result in the test on Staphylococcus aureus [3] was Active.

For `Cn1nnnc1SCC1=C(C(=O)[O-])N2C(=O)[C@@H](NC(=O)CS(C)(=O)=O)[C@H]2SC1.[Na+]`, the MIC against Klebsiella pneumoniae is 1.6 µg/mL; in the test with Staphylococcus aureus [2] it was 1.6 µg/mL; against Klebsiella aerogenes, 25 µg/mL; against Shigella flexneri it was 1.6 µg/mL; with Escherichia coli [4] it was 1.6 µg/mL; against Enterococcus faecalis it was more than 13 µg/mL. Inhibition of growth in the test with Salmonella paratyphi (MIC) required 0.8 µg/mL. Moreover, the ED50 with Escherichia coli [1] was 7 mg/kg. Also, the outcome with Pseudomonas aeruginosa was inactive. In the test with Staphylococcus aureus [3], the result was Active.

On to `CCCCS(=O)(=O)CC(=O)N[C@@H]1C(=O)N2C(C(=O)O)=C(COC(C)=O)CS[C@H]12`, for which the MIC was 13 µg/mL (≈ 29.9 µM) against Klebsiella pneumoniae; 0.2 µg/mL (≈ 0.46 µM) in the test on Staphylococcus aureus [2]; 50 µg/mL (≈ 115 µM) in the test on Klebsiella aerogenes; 6.2 µg/mL (≈ 14.3 µM) against Shigella flexneri; 13 µg/mL (≈ 29.9 µM) against Escherichia coli [4]; more than 13 µg/mL against Enterococcus faecalis. In the test on Salmonella paratyphi, this compound displayed an MIC of 3.1 µg/mL (≈ 7.13 µM). Moreover, the ED50 with Escherichia coli [1] worked out at 180 mg/kg. For the same compound, the result in the test with Pseudomonas aeruginosa was inactive. In addition, the outcome in the test with Staphylococcus aureus [3] was Active.

Consider `CC(=O)OCC1=C(C(=O)[O-])N2C(=O)[C@@H](NC(=O)CS(C)(=O)=O)[C@H]2SC1.[Na+]`, for which the minimal inhibitory concentration (MIC) in the test on Klebsiella pneumoniae is 13 µg/mL; in the test with Staphylococcus aureus [2] it was 3.1 µg/mL; with Klebsiella aerogenes, more than 200 µg/mL; with Shigella flexneri, 13 µg/mL; in the test with Escherichia coli [4], 13 µg/mL; against Enterococcus faecalis it was more than 13 µg/mL. In the test with Salmonella paratyphi, this compound registered an MIC of 13 µg/mL. In the test on Escherichia coli [1], the ED50 is 62 mg/kg. Besides, in the test with Pseudomonas aeruginosa, the outcome was inactive. In addition, the outcome with Staphylococcus aureus [3] was Active.
